According to patent US10144715B2, “Piperazine derivatives as liver X receptor modulators” (priority 2014, dated 2018):
Read-outs that look alike come from different tables or passages of the source.

How the values were obtained:
LXR α LBD protein = LXR α LBD protein (Homo sapiens (Human), UniProt Q13133); assay: LXR α radioligand binding assay (SPA, competition with [3H]TO901317); conditions: read-out: LXRα Binding Ki
LXR β LBD protein = LXR β LBD protein (Homo sapiens (Human), UniProt P55055); assay: biochemical; format: binding
LXR β LBD protein, sequence (P55055 222-460 limits assumed): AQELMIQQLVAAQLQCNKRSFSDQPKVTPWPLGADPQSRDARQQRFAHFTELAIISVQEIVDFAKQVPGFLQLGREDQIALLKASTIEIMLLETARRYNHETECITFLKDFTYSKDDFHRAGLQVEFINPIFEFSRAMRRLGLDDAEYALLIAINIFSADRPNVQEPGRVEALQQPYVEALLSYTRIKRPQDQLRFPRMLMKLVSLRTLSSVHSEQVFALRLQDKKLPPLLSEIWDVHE

[1] = biological target: Gal4 DNA binding domain fused to the LBD of LXRα in HEK293 cells (Homo sapiens (Human), UniProt Q13133); assay: LXR luciferase transcriptional reporter gene assay, agonist mode, LXRα; format: cell-based; conditions: for EC50: read-out: Cell LXRα EC50
Gal4 DNA binding domain fused to the LBD of LXRα in HEK293 cells, sequence (Q13133 209-447): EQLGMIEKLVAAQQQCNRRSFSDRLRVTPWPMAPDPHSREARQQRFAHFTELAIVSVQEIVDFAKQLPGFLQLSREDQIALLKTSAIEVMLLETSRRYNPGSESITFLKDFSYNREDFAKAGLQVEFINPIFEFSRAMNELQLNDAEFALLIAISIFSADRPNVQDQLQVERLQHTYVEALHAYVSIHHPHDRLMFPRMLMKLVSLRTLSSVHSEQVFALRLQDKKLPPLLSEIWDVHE

[2] = biological target: Gal4 DNA binding domain fused to the LBD of LXRβ in HEK293 cells (Homo sapiens (Human), UniProt P55055); assay: cell-based; conditions: for Cell LXRβ efficacy: agonist mode
Gal4 DNA binding domain fused to the LBD of LXRβ in HEK293 cells, sequence (P55055 222-460 limits assumed): as the sequence (P55055 222-460 limits assumed) above

LXR α LBD protein, sequence (Q13133 209-447): as the sequence (Q13133 209-447) above

Structure (SMILES) | Ki (LXR α LBD protein) [µM] | Ki (LXR β LBD protein) [µM] | EC50 [1] [µM] | EC50 [2] [µM] | Ki (LXR β LBD protein; read-out: LXRβ Binding Ki) [µM] | EC50 ([1]; agonist mode) [µM] | Cell LXRα efficacy [1] | Cell LXRβ efficacy [2]
CC(C)[C@@H]1CN(c2ccc(F)c(S(C)(=O)=O)c2)CCN1c1ncc(C(=O)N(C)CCO)c(C(F)(F)F)n1 [17-7, (R)-2-(4-(4-fluoro-3-(methylsulfonyl)phenyl)-2-isopropylpiperazin-1-yl)-N-(2-hydroxyethyl)-N-methyl-4-(trifluoromethyl)pyrimidine-5-carboxamide] | > 3.33 | 0.507 | > 20 | > 20 |  |  |  | 
COC1CN(C(=O)c2cnc(N3CCN(c4ccc(F)c(S(C)(=O)=O)c4)C[C@H]3C(C)C)nc2C(F)(F)F)C1 [17-9, (R)-(2-(4-(4-fluoro-3-(methylsulfonyl)phenyl)-2-isopropylpiperazin-1-yl)-4-(trifluoromethyl)pyrimidin-5-yl)(3-methoxyazetidin-1-yl)methanone] | > 3.33 |  | > 20 | > 20 | 0.41 |  |  | 
COCCCN(C)C(=O)c1cnc(N2CCN(c3ccc(F)c(S(C)(=O)=O)c3)C[C@H]2C(C)C)nc1C(F)(F)F [17-13, (R)-2-(4-(4-fluoro-3-(methylsulfonyl)phenyl)-2-isopropylpiperazin-1-yl)-N-(3-methoxypropyl)-N-methyl-4-(trifluoromethyl)pyrimidine-5-carboxamide] | 2.88 |  |  | > 20 | 0.253 | > 20 |  | 
CCN(CCOC)C(=O)c1cnc(N2CCN(c3ccc(F)c(S(C)(=O)=O)c3)C[C@H]2C(C)C)nc1C(F)(F)F [17-14, (R)-N-ethyl-2-(4-(4-fluoro-3-(methylsulfonyl)phenyl)-2-isopropylpiperazin-1-yl)-N-(2-methoxyethyl)-4-(trifluoromethyl)pyrimidine-5-carboxamide] | 0.915 |  |  | > 20 | 0.113 | > 20 |  | 
CCN(CCCO)C(=O)c1cnc(N2CCN(c3ccc(F)c(S(C)(=O)=O)c3)C[C@H]2C(C)C)nc1C(F)(F)F [17-15, (R)-N-ethyl-2-(4-(4-fluoro-3-(methylsulfonyl)phenyl)-2-isopropylpiperazin-1-yl)-N-(3-hydroxypropyl)-4-(trifluoromethyl)pyrimidine-5-carboxamide] | > 3.33 |  | > 20 | > 20 | 0.36 |  |  | 
COC(=O)NCCCN(C)C(=O)c1cnc(N2CCN(c3ccc(F)c(S(C)(=O)=O)c3)C[C@H]2C(C)C)nc1C(F)(F)F [17-19, methyl (R)-(3-(2-(4-(4-fluoro-3-(methylsulfonyl)phenyl)-2-isopropylpiperazin-1-yl)-N-methyl-4-(trifluoromethyl)pyrimidine-5-carboxamido)propyl)carbamate] | > 3.33 |  |  | > 20 | 0.584 | > 20 |  | 
CC(C)[C@@H]1CN(c2ccc(F)c(S(C)(=O)=O)c2)CCN1c1ncc(C(=O)N(C)CCCNC(=O)OC(C)(C)C)c(C(F)(F)F)n1 [17-23, tert-butyl (R)-(3-(2-(4-(4-fluoro-3-(methylsulfonyl)phenyl)-2-isopropylpiperazin-1-yl)-N-methyl-4-(trifluoromethyl)pyrimidine-5-carboxamido)propyl)carbamate] | 1.42 |  |  | > 20 | 0.257 | > 20 |  | 
Cc1nc(N2CCN(c3ccc(F)c(S(C)(=O)=O)c3)C[C@H]2C(C)C)ncc1C(N)=O [17-24, (R)-2-(4-(4-fluoro-3-(methylsulfonyl)phenyl)-2-isopropylpiperazin-1-yl)-4-methylpyrimidine-5-carboxamide] | > 3.33 |  |  | > 20 | 0.611 | > 20 |  | 
COCCN(C)C(=O)c1cnc(N2CCN(c3ccc(F)c(S(C)(=O)=O)c3)C[C@H]2C(C)C)nc1C [17-26, (R)-2-(4-(4-fluoro-3-(methylsulfonyl)phenyl)-2-isopropylpiperazin-1-yl)-N-(2-methoxyethyl)-N,4-dimethylpyrimidine-5-carboxamide] | > 3.33 |  |  | > 20 | 2.33 | > 20 |  | 
Cc1nc(N2CCN(c3ccc(F)c(S(C)(=O)=O)c3)C[C@H]2C(C)C)ncc1C(=O)N(C)CCCO [17-27, (R)-2-(4-(4-fluoro-3-(methylsulfonyl)phenyl)-2-isopropylpiperazin-1-yl)-N-(3-hydroxypropyl)-N,4-dimethylpyrimidine-5-carboxamide] | > 3.33 |  | > 20 | > 20 | > 2.5 |  |  | 
CC(C)[C@@H]1CN(c2cc(S(C)(=O)=O)c(CO)cc2F)CCN1c1ncc(C(N)=O)c(C(F)(F)F)n1 [17-29, (R)-2-(4-(2-fluoro-4-(hydroxymethyl)-5-(methylsulfonyl)phenyl)-2-isopropylpiperazin-1-yl)-4-(trifluoromethyl)pyrimidine-5-carboxamide] | 1.27 |  |  | 0.142 | 0.191 | 1.95 | 1950 (15) % | 142 (17) %
CCN(CCOC)C(=O)c1cnc(N2CCN(c3ccc(F)c(S(C)(=O)=O)c3)C[C@H]2C(C)C)nc1C [17-30, (R)-N-ethyl-2-(4-(4-fluoro-3-(methylsulfonyl)phenyl)-2-isopropylpiperazin-1-yl)-N-(2-methoxyethyl)-4-methylpyrimidine-5-carboxamide] | > 3.33 | 1.8 |  | > 20 |  | > 20 |  | 
COCCCN(C)C(=O)c1cnc(N2CCN(c3ccc(F)c(S(C)(=O)=O)c3)C[C@H]2C(C)C)nc1C [17-31, (R)-2-(4-(4-fluoro-3-(methylsulfonyl)phenyl)-2-isopropylpiperazin-1-yl)-N-(3-methoxypropyl)-N,4-dimethylpyrimidine-5-carboxamide] | > 3.33 | 2.45 |  | > 20 |  | > 20 |  | 
CN(C)C(=O)c1cnc(N2CCN(c3ccc(F)c(S(C)(=O)=O)c3)C[C@H]2c2ccc(F)cc2)nc1C(F)(F)F [17-33, (R)-2-(4-(4-fluoro-3-(methylsulfonyl)phenyl)-2-(4-fluorophenyl)piperazin-1-yl)-N,N-dimethyl-4-(trifluoromethyl)pyrimidine-5-carboxamide] | 10.6 | 1.22 |  | > 20 |  | > 20 |  | 
CC(C)[C@@H]1CN(c2ccc(CO)c(S(C)(=O)=O)c2)CCN1c1nc(C(F)(F)F)c(C(=O)N(C)C)s1 [17-34, (R)-2-(4-(4-(hydroxymethyl)-3-(methylsulfonyl)phenyl)-2-isopropylpiperazin-1-yl)-N,N-dimethyl-4-(trifluoromethyl)thiazole-5-carboxamide] | 0.152 |  |  | 0.105 | 0.023 | 0.465 | 465 (98) % | 105 (94) %
CC(C)[C@@H]1CN(c2ccc(CO)c(S(C)(=O)=O)c2)CCN1c1nc(C(F)(F)F)c(C(N)=O)s1 [17-35, (R)-2-(4-(4-(hydroxymethyl)-3-(methylsulfonyl)phenyl)-2-isopropylpiperazin-1-yl)-4-(trifluoromethyl)thiazole-5-carboxamide] | 1.66 |  | 1.74 | 0.161 | 0.111 |  | 1738 (19) % | 161 (23) %
CC(C)[C@@H]1CN(c2ccc(CO)c(S(C)(=O)=O)c2)CCN1c1nc(C(F)(F)F)c(C(C)(C)O)o1 [26-2, (R)-2-(2-(4-(4-(hydroxymethyl)-3-(methylsulfonyl)phenyl)-2-isopropylpiperazin-1-yl)-4-(trifluoromethyl)oxazol-5-yl)propan-2-ol] | 1.18 |  | 2.23 | 0.329 | 0.072 |  | 2233 (99) % | 329 (74) %
CC(C)(O)CC1CN(c2ccc(F)c(S(C)(=O)=O)c2)CCN1c1ccc(C(F)(F)F)cn1 (stereo not shown) [34-1, 1-(4-(4-fluoro-3-(methylsulfonyl)phenyl)-1-(5-(trifluoromethyl)pyridin-2-yl)piperazin-2-yl)-2-methylpropan-2-ol] | 1.24 |  | 2.46 | 0.67 | 0.151 |  | 2456 (78) % | 670 (83) %
CC(C)(F)CC1CN(c2ccc(F)c(S(C)(=O)=O)c2)CCN1c1ccc(C(F)(F)F)cn1 (stereo not shown) [35-1, 2-(2-fluoro-2-methylpropyl)-4-(4-fluoro-3-(methylsulfonyl)phenyl)-1-(5-(trifluoromethyl)pyridin-2-yl)piperazine] | 0.272 |  | 1.52 | 0.499 | 0.038 |  | 1522 (97) % | 499 (88) %
CC(C)[C@@H]1CN(c2cccc(S(C)(=O)=O)c2)CCN1c1ccc(C(F)(F)F)c(C2CC2)n1 [40-4, (R)-1-(6-cyclopropyl-5-(trifluoromethyl)pyridin-2-yl)-2-isopropyl-4-(3-(methylsulfonyl)phenyl)piperazine] | 0.014 |  | 1.06 | 0.214 | 0.007 |  | 1057 (80) % | 
CC(C)[C@H]1CN(c2ccc(C#N)c(S(C)(=O)=O)c2)CCN1Cc1ccc(C(F)(F)F)cc1 [46-9, (S)-4-(3-isopropyl-4-(4-(trifluoromethyl)benzyl)piperazin-1-yl)-2-(methylsulfonyl)benzonitrile] | > 3.33 |  |  | 1.08 | 0.231 | 2.48 | 2479 (57) % | 1078 (49) %
C[C@@H](c1ccc(C(F)(F)F)cc1)N1CCN(c2cccc(S(C)(=O)=O)c2)C[C@H]1c1ccccc1 [46-17, (R)-4-(3-(methylsulfonyl)phenyl)-2-phenyl-1-((S)-1-(4-(trifluoromethyl)phenyl)ethyl)piperazine] | > 3.33 | > 2.5 | > 20 | > 20 |  |  |  | 
